Measurements: paper PMC1570497, “HIV-2 Protease resistance defined in yeast cells” (Retrovirology, 2006)
Substitutions are numbered along the chain they refer to. Where “and” joins values, the source holds several entries; their conditions need not be identical. Equal values may be shown once.

How the values were obtained:
HIV-2 Protease MRT-22 = HIV-2 Protease MRT-22 (Human immunodeficiency virus type 2, UniProt P04584, cells depend on it, form not given); assay: yeast growth rescue assay, Protease from infected individual; details: for Phenotype (transformed yeast) (% cell growth) / IC50: MRT-22 Protease; for IC50isolate/IC50ROD: MRT-22; for IC50: yeast
HIV-2 Protease MRT-25 = HIV-2 Protease MRT-25 (Human immunodeficiency virus type 2, UniProt P04584, cells depend on it, form not given); assay: as above; details: for Phenotype (transformed yeast) (% cell growth) / IC50: MRT-25 Protease; for IC50: yeast
HIV-2 Protease MRT-7 = HIV-2 Protease MRT-7 (Human immunodeficiency virus type 2, UniProt P04584, cells depend on it, form not given); assay: as above; details: for Phenotype (transformed yeast) (% cell growth) / IC50: MRT-7 Protease; for IC50: yeast
HIV-2 Protease MRT-29 = HIV-2 Protease MRT-29 (Human immunodeficiency virus type 2, UniProt P04584, cells depend on it, form not given); assay: as above; details: for Phenotype (transformed yeast) (% cell growth) / IC50: MRT-29 Protease; for IC50isolate/IC50ROD: MRT-29; for IC50: yeast
HIV-2 Protease MRT-1 = HIV-2 Protease MRT-1 (Human immunodeficiency virus type 2, UniProt P04584, cells depend on it, form not given); assay: as above; details: for Phenotype (transformed yeast) (% cell growth) / IC50: MRT-1 Protease; for IC50: yeast
HIV-2 Protease MRT-20 = HIV-2 Protease MRT-20 (Human immunodeficiency virus type 2, UniProt P04584, cells depend on it, form not given); assay: as above; type: cell-based; details: for Phenotype (transformed yeast) (% cell growth) / IC50: MRT-20 Protease; for IC50isolate/IC50ROD: MRT-20; for IC50: yeast
HIV-2ROD Protease L90M = molecular target: T1, HIV-2ROD Protease L90M (Human immunodeficiency virus type 2 subtype A, UniProt P04584, L603M); assay: cell-based; type: cell-based; details: for IC50mutant/IC50ROD: L90M
T1 sequence (P04584 514-612 L603M): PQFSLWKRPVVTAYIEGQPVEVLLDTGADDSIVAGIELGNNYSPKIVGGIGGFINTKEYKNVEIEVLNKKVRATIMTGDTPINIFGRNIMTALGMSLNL

HIV-2 V20A, I54M = tested on: HIV-2 V20A, I54M; parameters: method as in PMID 16464891; key: resistant (R); sensitive (S); details: cited from earlier work
Protease from HIV-2ROD = tested on: Protease from HIV-2ROD; parameters: method as in PMID 16464891, PMID 16327332; details: read-out: IC50 already reported in the literature; cited from earlier work
HIV-2 Protease MRT-8 = HIV-2 Protease MRT-8 (Human immunodeficiency virus 2, UniProt P04584, L603M, cells depend on it, form not given); assay: yeast growth rescue assay, Protease from infected individual; details: for Phenotype (transformed yeast) (% cell growth) / IC50: MRT-8 Protease; for IC50: yeast
HIV-2 K45R = tested on: HIV-2 K45R; parameters: method as in PMID 16464891; key: resistant (R); sensitive (S); details: cited from earlier work
HIV-2ROD Protease L99F = molecular target: T2, HIV-2ROD Protease L99F (Human immunodeficiency virus type 2 subtype A, UniProt P04584, L612F); assay: cell-based; details: for IC50mutant/IC50ROD: L99F
T2 construct: contains a Phe codon at position 99 of the HIV-2 Protease, followed by a stop codon; initiator Met (start codon of primer Fwd) (N); expressed in transfected cells; host or cells: Saccharomyces cerevisiae BY4741, pRS316GAL1/10
T2 sequence (P04584 514-612 L612F): T1 sequence (P04584 514-612 L603M) with M90L, L99F

HIV-2ROD wild type = tested on: HIV-2ROD wild type; parameters: method as in previously published data; key: resistant (R); sensitive (S); details: ref previously published data; cited from earlier work
[1] = molecular target: T3, HIV-2ROD Protease (wild type) (Human immunodeficiency virus type 2 subtype A, UniProt P04584); assay: yeast growth rescue assay, HIV-2ROD Protease expressed in BY4741 yeast; type: cell-based; details: for Phenotype (transformed yeast) (% cell growth): galactose, wild type ROD Protease; for Phenotype (transformed yeast) (% cell growth) / IC50: 48 h; for IC50isolate/IC50ROD: ROD (reference); for IC50: ROD Protease
T3 construct: initiator Met (added ATG start codon) (N); expressed in transfected cells; host or cells: Saccharomyces cerevisiae BY4741, pRS316Gal1/10-HIV2PR (galactose-inducible)

HIV-2ROD Protease = molecular target: T4, HIV-2ROD Protease (Human immunodeficiency virus type 2 subtype A, UniProt P04584); type: cell-based
T4 construct: initiator Met (added ATG start codon) (N); expressed in transfected cells; host or cells: Saccharomyces cerevisiae BY4741, pRS316Gal1/10-HIV2PR (galactose-inducible)

HIV-2 M76V = tested on: HIV-2 M76V; parameters: key: resistant (R); sensitive (S); details: cited from earlier work

HIV-2 Protease MRT-20, sequence (P04584 514-612 limits assumed, stated change not applied): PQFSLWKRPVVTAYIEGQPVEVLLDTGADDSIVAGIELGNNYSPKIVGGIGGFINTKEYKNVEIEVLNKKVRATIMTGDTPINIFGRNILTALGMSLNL
HIV-2 Protease MRT-7, sequence (P04584 514-612 limits assumed, change not shown): as the sequence (P04584 514-612 limits assumed, stated change not applied) above
HIV-2 Protease MRT-25, sequence (P04584 514-612 limits assumed, change not shown): as the sequence (P04584 514-612 limits assumed, stated change not applied) above
HIV-2 Protease MRT-29, sequence (P04584 514-612 limits assumed, change not shown): as the sequence (P04584 514-612 limits assumed, stated change not applied) above
T3 sequence (P04584 514-612 limits assumed): as the sequence (P04584 514-612 limits assumed, stated change not applied) above
HIV-2 Protease MRT-22, sequence (P04584 514-612 limits assumed, change not shown): as the sequence (P04584 514-612 limits assumed, stated change not applied) above
HIV-2 Protease MRT-1, sequence (P04584 514-612 limits assumed, change not shown): as the sequence (P04584 514-612 limits assumed, stated change not applied) above
T4 sequence (P04584 514-612 limits assumed): as the sequence (P04584 514-612 limits assumed, stated change not applied) above

SMILES	IC50isolate/IC50ROD (HIV-2 Protease MRT-22)	IC50 (HIV-2 Protease MRT-22) [µM]	IC50 (HIV-2 Protease MRT-25) [µM]	IC50 (HIV-2 Protease MRT-7) [µM]	IC50isolate/IC50ROD (HIV-2 Protease MRT-29)	IC50 (HIV-2 Protease MRT-29) [µM]	IC50 (HIV-2 Protease MRT-1) [µM]	IC50isolate/IC50ROD (HIV-2 Protease MRT-20)	IC50 (HIV-2 Protease MRT-20) [µM]	IC50 (HIV-2ROD Protease L90M) [µM]	IC50mutant/IC50ROD (HIV-2ROD Protease L90M)	Phenotype (virus production) (HIV-2 V20A, I54M)	IC50 (Protease from HIV-2ROD) [µM]	IC50 (HIV-2 Protease MRT-8) [µM]	Phenotype (virus production) (HIV-2 K45R)	IC50 (HIV-2ROD Protease L99F) [µM]	IC50mutant/IC50ROD (HIV-2ROD Protease L99F)	Phenotype (virus production) (HIV-2ROD wild type)	IC50isolate/IC50ROD [1]	IC50 [1] [µM]	other results
Cc1cccc(C)c1OCC(=O)N[C@@H](Cc1ccccc1)[C@@H](O)C[C@H](Cc1ccccc1)NC(=O)[C@H](C(C)C)N1CCCNC1=O [LPV, Lopinavir]	0.91	15.1 ± 4.3	19.9 ± 4.6	10.8 ± 5	0.84	13.9 ± 5.5	48 ± 3.2	1.40	23.2 ± 4.4	12.5 ± 8.1	0.75	R [9]	0.027	12.5 ± 1.5	R [9]	11.1 ± 3.1	0.67	S	1.00	16.6 ± 2.5	Phenotype (transformed yeast) (% cell growth) (HIV-2 Protease MRT-22; LPV at 150 μM): 98.5+/-1.0%; Phenotype (transformed yeast) (% cell growth) (HIV-2 Protease MRT-25; LPV at 150 μM): 100.0+/-2.0%; IC50isolate/IC50ROD (HIV-2 Protease MRT-25; MRT-25): 1.20; Phenotype (transformed yeast) (% cell growth) (HIV-2 Protease MRT-7; LPV at 150 μM): 100.0+/-4.7%; Phenotype (transformed yeast) (% cell growth) (HIV-2 Protease MRT-29; LPV at 150 μM): 93.0+/-2.0%; Phenotype (transformed yeast) (% cell growth) (HIV-2 Protease MRT-1; LPV at 150 μM): 50.0+/-3.0%; Phenotype (transformed yeast) (% cell growth) (HIV-2 Protease MRT-20; LPV at 150 μM): 71.5+/-1.2%; Phenotype (transformed yeast) (% cell growth) (HIV-2 Protease MRT-8; LPV at 150 μM): 82.0+/-7.5%; Phenotype (transformed yeast) (% cell growth) ([1]; LPV at 150 μM): 91.5% and 91.5+/-1.2%; growth in galactose (HIV-2ROD Protease; 60 μM LPV): grew in galactose
CC(C)(C)NC(=O)[C@@H]1C[C@@H]2CCCC[C@@H]2CN1C[C@@H](O)[C@H](Cc1ccccc1)NC(=O)[C@H](CC(N)=O)NC(=O)c1ccc2ccccc2n1 [SQV, Saquinavir]	0.70	105 ± 7.1	48.5 ± 4.7	68.9 ± 6.2	1.02	153 ± 3	200 ± 5.1	0.79	118 ± 6.3	554.1 ± 3.9	3.7	R [9]	0.011	553.9 ± 4.2	R [9]	147 ± 5.1	0.98	S	1.00	150 ± 7.2	Phenotype (transformed yeast) (% cell growth) (HIV-2 Protease MRT-22; SQV at 1mM): 82.0+/-7.1%; Phenotype (transformed yeast) (% cell growth) (HIV-2 Protease MRT-25; SQV at 1mM): 100.0+/-9.4%; IC50isolate/IC50ROD (HIV-2 Protease MRT-7; MRT-7): 0.46; Phenotype (transformed yeast) (% cell growth) (HIV-2 Protease MRT-7; SQV at 1mM): 98.0+/-6%; Phenotype (transformed yeast) (% cell growth) (HIV-2 Protease MRT-29; SQV at 1mM): 72.0+/-3.0%; IC50isolate/IC50ROD (HIV-2 Protease MRT-1; MRT-1): 1.34; Phenotype (transformed yeast) (% cell growth) (HIV-2 Protease MRT-1; SQV at 1mM): 71.0+/-5%; Phenotype (transformed yeast) (% cell growth) (HIV-2 Protease MRT-20; SQV at 1mM): 78.0+/-3.0%; IC50isolate/IC50ROD (HIV-2 Protease MRT-8; MRT-8): 4.2 and 4.23; Phenotype (transformed yeast) (% cell growth) (HIV-2 Protease MRT-8; SQV at 1mM, 1000 µM): 55% and 55.0+/-6.3%; Phenotype (virus production) (HIV-2 M76V): R [10]; Phenotype (transformed yeast) (% cell growth) ([1]; SQV at 1mM): 75% and 75.0+/-7.0%; growth on galactose plates (lethal phenotype) (HIV-2ROD Protease; SQV at 200 μM, 2 days at 30°C): the lethal phenotype was no longer observed
